US10266497B2 (ABIDE THERAPEUTICS, INC., priority 2017, dated 2019)

What was measured:
FAAH [1] = biological target: T1, FAAH (Homo sapiens, UniProt O00519); experiment: In vitro competitive activity-based protein profiling, FAAH, human; conditions: for inhibition at 1 µM: read-out: FAAH % inh. 1 μM (human)
T1 sequence (O00519 1-579): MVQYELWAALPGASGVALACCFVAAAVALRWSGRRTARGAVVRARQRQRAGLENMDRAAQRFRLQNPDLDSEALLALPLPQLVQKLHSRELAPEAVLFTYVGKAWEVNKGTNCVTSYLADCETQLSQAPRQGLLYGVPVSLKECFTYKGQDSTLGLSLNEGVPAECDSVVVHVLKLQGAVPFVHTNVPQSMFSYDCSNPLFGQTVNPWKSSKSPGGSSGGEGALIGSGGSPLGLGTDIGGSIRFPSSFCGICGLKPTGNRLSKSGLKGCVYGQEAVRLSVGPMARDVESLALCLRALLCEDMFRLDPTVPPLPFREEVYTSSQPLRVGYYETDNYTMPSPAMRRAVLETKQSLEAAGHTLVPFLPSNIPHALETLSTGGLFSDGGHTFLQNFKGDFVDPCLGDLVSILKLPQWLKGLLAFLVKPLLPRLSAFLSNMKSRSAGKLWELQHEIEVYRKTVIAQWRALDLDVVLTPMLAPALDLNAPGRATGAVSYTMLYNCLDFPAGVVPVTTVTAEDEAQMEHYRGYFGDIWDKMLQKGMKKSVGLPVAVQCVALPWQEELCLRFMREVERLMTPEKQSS

MAGL [2] = biological target: T2, MAGL (Homo sapiens, UniProt Q99685); experiment: In vitro competitive activity-based protein profiling, MAGL, human; conditions: read-out: MAGL % inh. 1 μM (human)
T2 sequence (Q99685 1-303): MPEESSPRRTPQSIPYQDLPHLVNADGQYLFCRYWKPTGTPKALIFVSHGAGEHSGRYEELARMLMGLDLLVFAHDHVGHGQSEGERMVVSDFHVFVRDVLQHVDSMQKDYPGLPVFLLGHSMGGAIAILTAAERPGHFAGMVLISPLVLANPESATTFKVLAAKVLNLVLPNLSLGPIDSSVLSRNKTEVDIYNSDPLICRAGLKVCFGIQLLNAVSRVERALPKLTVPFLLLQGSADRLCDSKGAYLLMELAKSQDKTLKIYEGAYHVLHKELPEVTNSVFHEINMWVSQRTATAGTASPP

MAGL [3] = biological target: T3, MAGL (Mus musculus, UniProt O35678); experiment: Mouse brain proteomes from inhibitor treated mice (oral gavage, sacrificed 4 h after administration); format: in vivo; parameters: mouse brain membrane fraction for mouse assays; from tissue; host or cells: mouse brain (membrane fraction in vitro; brain proteomes of treated C57Bl/6J mice in vivo); conditions: 5 mg/kg oral gavage, brain proteome 4 h after administration, read-out: MAGL % inh. 5 mg/kg (mouse)
T3 sequence (O35678 1-303): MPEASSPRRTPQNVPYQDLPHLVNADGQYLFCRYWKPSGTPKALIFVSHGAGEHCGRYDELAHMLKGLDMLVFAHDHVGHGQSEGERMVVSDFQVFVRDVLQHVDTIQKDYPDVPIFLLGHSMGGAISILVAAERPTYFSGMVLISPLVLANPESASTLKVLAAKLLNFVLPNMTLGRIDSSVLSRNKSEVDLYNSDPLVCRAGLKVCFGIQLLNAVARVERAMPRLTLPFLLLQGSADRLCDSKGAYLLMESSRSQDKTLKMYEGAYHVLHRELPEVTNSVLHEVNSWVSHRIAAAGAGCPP

FAAH [4] = biological target: T4, FAAH (Mus musculus, UniProt O08914); experiment: Mouse brain proteomes from inhibitor treated mice (oral gavage, sacrificed 4 h after administration), FAAH; format: in vivo; parameters: mouse brain membrane fraction for mouse assays; from tissue; host or cells: mouse brain (membrane fraction in vitro; brain proteomes of treated C57Bl/6J mice in vivo); conditions: 5 mg/kg oral gavage, brain proteome 4 h after administration, read-out: FAAH % inh. 5 mg/kg (mouse)
T4 sequence (O08914 1-579): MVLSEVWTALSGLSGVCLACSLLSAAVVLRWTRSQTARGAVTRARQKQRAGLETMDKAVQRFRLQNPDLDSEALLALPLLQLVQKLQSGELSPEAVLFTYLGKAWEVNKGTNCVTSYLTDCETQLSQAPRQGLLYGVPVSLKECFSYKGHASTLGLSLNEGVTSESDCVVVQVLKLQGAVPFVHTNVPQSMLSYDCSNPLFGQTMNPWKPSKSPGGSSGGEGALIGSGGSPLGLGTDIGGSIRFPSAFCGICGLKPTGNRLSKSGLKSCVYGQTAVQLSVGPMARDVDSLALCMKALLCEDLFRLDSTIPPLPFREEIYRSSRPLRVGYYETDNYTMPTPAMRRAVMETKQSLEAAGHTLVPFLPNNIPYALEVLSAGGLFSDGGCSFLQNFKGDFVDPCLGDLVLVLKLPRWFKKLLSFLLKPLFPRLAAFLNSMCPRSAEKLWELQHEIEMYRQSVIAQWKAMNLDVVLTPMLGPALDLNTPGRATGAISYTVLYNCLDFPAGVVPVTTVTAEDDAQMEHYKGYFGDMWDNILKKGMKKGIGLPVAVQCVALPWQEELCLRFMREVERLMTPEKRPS

FAAH [5] = biological target: T4, FAAH; experiment: In vitro competitive activity-based protein profiling, FAAH, mouse; conditions: read-out: FAAH % inh. 1 μM (mouse)
MAGL [6] = biological target: T3, MAGL; experiment: In vitro competitive activity-based protein profiling, MAGL, mouse; conditions: read-out: MAGL % inh. 1 μM (mouse)

| SMILES | inhibition at 1 µM (FAAH [1]) | inhibition at 1 µM (MAGL [2]) | inhibition at 5 mg/kg (MAGL [3]) | inhibition at 5 mg/kg (FAAH [4]) | inhibition at 1 µM (FAAH [5]) | inhibition at 1 µM (MAGL [6]) | IC50 (FAAH [1]) |
| --- | --- | --- | --- | --- | --- | --- | --- |
| O=C(O)c1ccn(C(=O)N2CCN(Cc3cccc(C(F)(F)F)c3N3CCCC3)CC2)n1 [Example 90, 1-(4-(2-(pyrrolidin-1-yl)-3-(trifluoromethyl)benzyl)piperazine-1-carbonyl)-1H-pyrazole-3-carboxylic acid] | 0 to 25% | > 75% | 0 to 25% | 0 to 25% | 0 to 25% | > 75% | – |
| O=C(O)c1ccn(C(=O)N2CCN(Cc3ccc(C(F)(F)F)c(N4CCCC4)c3)CC2)n1 [Example 7, 1-(4-(3-(Pyrrolidin-1-yl)-4-(trifluoromethyl)benzyl)piperazine-1-carbonyl)-1H-pyrazole-3-carboxylic Acid] | 0 to 25% | > 75% | 0 to 25% | 0 to 25% | 0 to 25% | > 75% | – |
| O=C(O)c1ccn(C(=O)N2CCN(Cc3ccc(C(F)(F)F)cc3N3CC[C@H](F)C3)CC2)n1 [Example 92, (S)-1-(4-(2-(3-fluoropyrrolidin-1-yl)-4-(trifluoromethyl)benzyl)-piperazine-1-carbonyl)-1H-pyrazole-3-carboxylic acid] | 0 to 25% | > 75% | 0 to 25% | 0 to 25% | 0 to 25% | > 75% | 1 to 10 µM |
| O=C(O)c1ccn(C(=O)N2CCN(Cc3ccc(Cl)cc3N3CCCC3)CC2)n1 [Example 107, 1-(4-(4-chloro-2-(pyrrolidin-1-yl)benzyl)piperazine-1-carbonyl)-1H-pyrazole-3-carboxylic acid] | 0 to 25% | > 75% | 0 to 25% | 0 to 25% | 0 to 25% | > 75% | – |
| C[C@@H]1CCCN1c1cc(C(F)(F)F)ccc1CN1CCN(C(=O)n2ccc(C(=O)O)n2)CC1 [Example 95, (R)-1-(4-(2-(2-methylpyrrolidin-1-yl)-4-(trifluoromethyl)benzyl)piperazine-1-carbonyl)-1H-pyrazole-3-carboxylic acid] | 0 to 25% | > 75% | 0 to 25% | 0 to 25% | 0 to 25% | > 75% | – |
| O=C(O)c1ccn(C(=O)N2CCC3(CCCN3Cc3cc(N4CCCC4)cc(C(F)(F)F)c3)CC2)n1 [Example 88, 1-(1-(3-(pyrrolidin-1-yl)-5-(trifluoromethyl)benzyl)-1,8-diazaspiro[4.5]decane-8-carbonyl)-1 1H-pyrazole-3-carboxylic acid] | 0 to 25% | > 75% | 0 to 25% | 0 to 25% | 0 to 25% | > 75% | – |

The remaining lines, values ahead:

| inhibition at 1 µM (FAAH [1]) | inhibition at 1 µM (MAGL [2]) | inhibition at 5 mg/kg (MAGL [3]) | inhibition at 5 mg/kg (FAAH [4]) | inhibition at 1 µM (FAAH [5]) | inhibition at 1 µM (MAGL [6]) | IC50 (FAAH [1]) | SMILES |
| --- | --- | --- | --- | --- | --- | --- | --- |
| 0 to 25% | > 75% | 0 to 25% | 0 to 25% | 0 to 25% | > 75% | – | CC(=O)NC1CCN(c2cc(C(F)(F)F)ccc2CN2CCN(C(=O)n3ccc(C(=O)O)n3)CC2)CC1 [Example 119, 1-(4-(2-(4-acetamidopiperidin-1-yl)-4-(trifluoromethyl)benzyl)piperazine-1-carbonyl)-1H-pyrazole-3-carboxylic acid] |
| > 75% | > 75% | 0 to 25% | 0 to 25% | > 75% | > 75% | – | O=C(O)c1nn(C(=O)N2CCN(Cc3cccc(Oc4ccc(Cl)cc4)c3)CC2)cc1Cl [Example 132, 4-chloro-1-(4-(3-(4-chlorophenoxy)benzyl)piperazine-1-carbonyl)-1H-pyrazole-3-carboxylic acid] |
| 0 to 25% | > 75% | 0 to 25% | 0 to 25% | 0 to 25% | > 75% | – | O=C(O)c1ccn(C(=O)N2CCC(Oc3ccc(Cl)c(N4CCCC4)c3)CC2)n1 [Example 121, 1-(4-(4-chloro-3-(pyrrolidin-1-yl)phenoxy)piperidine-1-carbonyl)-1H-pyrazole-3-carboxylic acid] |
| 50 to 75% | > 75% | 0 to 25% | 0 to 25% | 50 to 75% | > 75% | 0.1 to 1 µM | Cc1cn(C(=O)N2CCC3(CCN(Cc4cc(Cl)ccc4C(F)(F)F)C3)CC2)nc1C(=O)O [Example 130, 1-(2-(5-chloro-2-(trifluoromethyl)benzyl)-2,8-diazaspiro[4.5]decane-8-carbonyl)-4-methyl-1H-pyrazole-3-carboxylic acid] |
| > 75% | > 75% | 0 to 25% | 0 to 25% | > 75% | > 75% | 0.1 to 1 µM | O=C(O)c1nn(C(=O)N2CCC3(CCN(Cc4cc(Cl)ccc4C(F)(F)F)C3)CC2)cc1Cl [Example 133, 4-chloro-1-(2-(5-chloro-2-(trifluoromethyl)benzyl)-2,8-diazaspiro[4.5]decane-8-carbonyl)-1H-pyrazole-3-carboxylic acid] |
| > 75% | > 75% | 0 to 25% | 25 to 50% | > 75% | > 75% | 0.1 to 1 µM | O=C(O)c1nn(C(=O)N2CCC3(CCN(Cc4cc(Cl)ccc4C(F)(F)F)C3)CC2)cc1C(F)(F)F [Example 148, 1-(2-(5-chloro-2-(trifluoromethyl)benzyl)-2,8-diazaspiro[4.5]decane-8-carbonyl)-4-(trifluoromethyl)-1H-pyrazole-3-carboxylic acid] |
| > 75% | > 75% | > 75% | 0 to 25% | > 75% | > 75% | 0.1 to 1 µM | NC(=O)c1ccn(C(=O)N2CCN(Cc3cccc(C(F)(F)F)c3N3CCOCC3)CC2)n1 [Example 199, 1-(4-(2-morpholino-3-(trifluoromethyl)benzyl)piperazine-1-carbonyl)-1H-pyrazole-3-carboxamide] |
